Assay [1] relates to panel of solid and haemotological tumor cell lines. The experiment in a line: MTS cell proliferation assay (cytotoxicity). In kind it is cell-based. The note with it: 72 hours incubation, MTS readout. How it is done: MTS Cell Proliferation Assay
The anti-proliferation effect of MCT inhibition was investigated across a panel of solid and haemotological tumor cell lines. Cells were routinely cultured in their appropriate growth medium. On day 1, between 5,000-20,000 cells/well were plated into 96-well plates. 100 μL of phosphate buffered saline solution was added to the external wells to prevent media evaporation. Plates were incubated in growth medium overnight at 37° C. in the presence of 5% CO2. On day 2, dry weight compound stocks were dissolved to a concentration of 20 mM in 100% DMSO. Compounds were further diluted in the assay medium; 10 mM lactate medium (without glucose, pyruvate, and glutamine) or RPMI medium or appropriate medium to generate a final dose range of 10 nM to 100 μM. Growth medium in the 96-well plate was replaced with the assay medium (10 mM lactate medium or RPMI medium or appropriate medium), and compounds were added to each well in the plate at different concentrations via serial dilution or pre-prepared solutions in assay medium. Plates were then incubated at 37° C. in the presence of 5% CO2 for a further 72 hours. On day 5, 20 μL of CellTiter 96 AQ MTS reagent was added to each well and the plate was returned to the incubator for 2 hours. In case of lactate medium, the medium was replaced by 100 μL of growth medium and 20 μL of CellTiter 96 AQ MTS reagent. MTS is bioreduced by NADPH or NADH produced by dehydrogenase enzymes in metabolically active cells into a coloured formazan product that is soluble in tissue culture medium. The amount of coloured formazan product is directly proportional to the number of living cells in culture. The absorbance of the plates was read on a Synergy H4 plate reader using […] measurement wavelength. Dose response curves were plotted and IC50 values were calculated using GraphPrism. The IC50 value is equivalent to the concentration of compound that causes 50% inhibition of growth calculated from the compound treated signal to the vehicle treated signal.
MTT Cell Proliferation Assay
The MIT assay is a colorimetric assay for assessing cell viability similar to MTS assay. NAD(P)H-dependent cellular oxidoreductase enzymes may, under defined conditions, reflect the number of viable cells present. These enzymes are capable of reducing the tetrazolium dye MTT 3-(4,5-dimethylthiazol-2-yl)-2,5-diphenyltetrazolium bromide to its insoluble formazan, which has a purple color. MTT powder is dissolved in Dulbecco's Phosphate Buffered Saline, pH=7.4 (DPBS) to 5 mg/ml as stock solution. Cells and test compounds in 96-well plates were prepared containing a final volume of 100 μL/well as described in the MTS assay. The assay was performed similar to MTS assay above. […] The absorbance was read at 570 nm.
In general terms: Tetrazolium dyes change colour on reduction, which living cells bring about.

The test system of assay [2] is MDA-MB-231 human breast carcinoma cells. The assay is described as follows: Tumor xenograft model (orthotopic, NOD-SCID mice). Type of assay: in vivo. The note with it: nine days after start of treatment. How it is done: In order to test the in vivo efficacy of the invention, Example 9 was tested according to the protocol of Iorns to al. [Iorns E, Drews-Elger K, Ward T M, Dean S, Clarke J, Berry D, et al. (2012) A New Mouse Model for the Study of Human Breast Cancer Metastasis. PLoS ONE 7(10): e47995. https://doi.org/10.1371/journal.pone.0047995] Twenty-eight female NOD-SCID mice (Charles River) were injected orthotopically with basal MDA-MB-231 human breast carcinoma cells into the mammary fat pads. […] Mice were dosed qd with 30 mg/kg and 75 mg/kg p.o. of Example 9. At nine days after start of treatment tumor volume was roughly 50% of control in mice dosed at 30 mg/kg and roughly 30% of control in mice dosed at 75 mg/kg.

Some results are limits rather than exact numbers.

On to `CN(Cc1ccccc1)c1cc2oc(=O)c(C(=O)O)cc2s1` [Example 1, 2-(benzyl(methyl)amino)-5-oxo-5H-thieno[3,2-b]pyran-6-carboxylic acid], for which the IC50 in assay [1] was under 1 µM.
Take `CN(Cc1ccc(F)cc1)c1cc2oc(=O)c(C(=O)O)cc2s1` [Example 2, 2-((4-fluorobenzyl)(methyl)amino)-5-oxo-5H-thieno[3,2-b]pyran-6-carboxylic acid]: in assay [1], the half-maximal inhibitory concentration (IC50) was under 1 µM.
As to `COc1cccc(C(=O)N(C)c2cc3oc(=O)c(C(=O)O)cc3s2)c1` [Example 9, 2-(3-methoxy-N-methylbenzamido)-5-oxo-5H-thieno[3,2-b]pyran-6-carboxylic acid], the IC50 in assay [1] is under 1 µM. Besides, the “tumor volume, % of control” value in assay [2] (30 mg/kg p.o. qd) was “roughly 50 % of control”; in assay [2] (75 mg/kg p.o. qd) it was “roughly 30 % of control”.
In the case of `COc1ccccc1C(=O)N(C)c1cc2oc(=O)c(C(=O)O)cc2s1` [Example 17, 2-[(2-Methoxy-benzoyl)-methyl-amino]-5-oxo-5H-thieno[3,2-b]pyran-6-carboxylic acid], the half-inhibitory concentration (IC50) in assay [1] is under 1 µM.

Usually IC50 stands for the concentration that gives 50% inhibition.

Source of the values: patent publication US20230192718A1, “BICYCLIC ENONE CARBOXYLATES AS MODULATORS OF TRANSPORTERS AND USES THEREOF” (NIROGY THERAPEUTICS, INC., priority 2018, published 2023).
